In patent US6479435B1, “Diaryl ethers and processes for their preparation and herbicidal and desiccant compositions containing them” (ISK Americas Incorporated, priority 1997, dated 2002):

Legend:
Assay type in all cases: in vivo
[1] = tested on: ivyleaf morningglory (Ipomoea hederacea, IPOHE); assay: Pre-emerge greenhouse herbicide test, phytotoxicity rating; conditions: 14 days after application, rating scale 0-100
Summary of the method: (§1)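 Seeds sown in sandy loam one day before track-sprayer application of acetone solutions at 125–1000 g ai/ha (187 l/ha), then surface-watered to incorporate and bottom-watered. Injury scored visually at 14 days on a 0–100 scale (0 no damage, 100 complete death).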

[2] = tested on: common ragweed (Ambrosia artemisiifolia L., AMBEL); assay: as above; conditions: 14 days after application, rating scale 0-100
Summary of the method: as §1

[3] = tested on: velvetleaf (Abutilon theophrasti, ABUTH); assay: as above; conditions: 14 days after application, rating scale 0-100
Summary of the method: as §1

[4] = tested on: Johnsongrass (Sorghum halepense, SORHA); assay: as above; conditions: 14 days after application, rating scale 0-100
Summary of the method: as §1

[5] = tested on: redroot pigweed (Amaranthus retroflexus, AMARE); assay: as above; conditions: 14 days after application, rating scale 0-100
Summary of the method: as §1

[6] = tested on: lambsquarters (Chenopodium album, CHEAL); assay: as above; conditions: 14 days after application, rating scale 0-100
Summary of the method: as §1

[7] = tested on: sicklepod (Cassia obtusifolia, CASOB); assay: as above; conditions: 14 days after application, rating scale 0-100
Summary of the method: as §1

[8] = tested on: large crabgrass (Digitaria sanguinalis, DIGSA); assay: as above; conditions: 14 days after application, rating scale 0-100
Summary of the method: as §1

[9] = tested on: barnyardgrass (Echinochloa crusgalli, ECHCG); assay: as above; conditions: 14 days after application, rating scale 0-100
Summary of the method: as §1

[10] = tested on: green foxtail (Setaria viridis, SETVI); assay: as above; conditions: 14 days after application, rating scale 0-100
Summary of the method: as §1

[11] = tested on: soybean (Glycine max L., var. Pella 86, SOY); assay: Pre-emerge greenhouse test, crop damage rating; set-up: key to SOY crop damage rating: 0 = no damage, 100 = complete death of all plants; conditions: 14 days after application, rating scale 0-100
Summary of the method: as §1

[12] = tested on: soybean (Glycine max L., var. Pella 86, SOY); assay: Post-emerge greenhouse test, crop damage rating; set-up: key to crop damage rating SOY: 0-100 scale: 0 = no damage, 100 = complete death of all plants; conditions: 14 days after application, scale 0-100
Summary of the method: (§2)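 Plants at the 2-3 leaf stage, sown 8-21 days earlier, were track-sprayed post-emergence with compound in acetone plus 0.25% v/v non-ionic surfactant at 63-1000 g ai/ha (187 l/ha). Damage was rated at 14 days on a 0-100 scale (0 none, 100 all plants dead), for both crop injury and weed control.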

[13] = tested on: field corn (Zea mays L., var. Dekalb 535, CORN); assay: Pre-emerge greenhouse test, crop damage rating; conditions: 14 days after application, rating scale 0-100
Summary of the method: as §1

[14] = tested on: upland rice (Oryza sp., var.Tebonnet, RICE); assay: Pre-emerge greenhouse test, crop damage rating; conditions: 14 days after application, rating scale 0-100
Summary of the method: as §1

[15] = tested on: common ragweed (Ambrosia artemisiifolia L., AMBEL); assay: Post-emerge greenhouse herbicide test, phytotoxicity rating; conditions: 14 days after application, scale 0-100
Summary of the method: as §2

[16] = tested on: ivyleaf morningglory (Ipomoea hederacea, IPOHE); assay: as above; conditions: 14 days after application, scale 0-100
Summary of the method: as §2

[17] = tested on: velvetleaf (Abutilon theophrasti, ABUTH); assay: as above; conditions: 14 days after application, scale 0-100
Summary of the method: as §2

[18] = tested on: Johnsongrass (Sorghum halepense, SORHA); assay: as above; conditions: 14 days after application, scale 0-100
Summary of the method: as §2

[19] = tested on: redroot pigweed (Amaranthus retroflexus, AMARE); assay: as above; conditions: 14 days after application, scale 0-100
Summary of the method: as §2

[20] = tested on: lambsquarters (Chenopodium album, CHEAL); assay: as above; conditions: 14 days after application, scale 0-100
Summary of the method: as §2

[21] = tested on: large crabgrass (Digitaria sanguinalis, DIGSA); assay: as above; conditions: 14 days after application, scale 0-100
Summary of the method: as §2

[22] = tested on: barnyardgrass (Echinochloa crusgalli, ECHCG); assay: as above; conditions: 14 days after application, scale 0-100
Summary of the method: as §2

[23] = tested on: green foxtail (Setaria viridis, SETVI); assay: as above; conditions: 14 days after application, scale 0-100
Summary of the method: as §2

[24] = tested on: field corn (Zea mays L., var. Dekalb 535, CORN); assay: Post-emerge greenhouse test, crop damage rating; conditions: 14 days after application, scale 0-100
Summary of the method: as §2

[25] = tested on: upland rice (Oryza sp., var.Tebonnet, RICE); assay: Post-emerge greenhouse test, crop damage rating; conditions: 14 days after application, scale 0-100
Summary of the method: as §2

Nc1ccc(Oc2cc(-n3c(=O)n4n(c3=S)CCCC4)c(F)cc2Cl)nc1 [Compound 8-24]
IPOHE phytotoxicity rating ([1]; Rate 125 g al/ha): 0
IPOHE phytotoxicity rating ([1]; Rate 500 g al/ha): 70
AMBEL phytotoxicity rating ([2]; Rate 125 g al/ha): 80
AMBEL phytotoxicity rating ([2]; Rate 500 g al/ha): 100
ABUTH phytotoxicity rating ([3]; Rate 125 g al/ha): 100
ABUTH phytotoxicity rating ([3]; Rate 500 g al/ha): 100
SORHA phytotoxicity rating ([4]; Rate 125 g al/ha): 20
SORHA phytotoxicity rating ([4]; Rate 500 g al/ha): 20
AMARE phytotoxicity rating ([5]; Rate 125 g al/ha): 95
AMARE phytotoxicity rating ([5]; Rate 500 g al/ha): 100
CHEAL phytotoxicity rating ([6]; Rate 125 g al/ha): 99
CHEAL phytotoxicity rating ([6]; Rate 500 g al/ha): 100
CASOB phytotoxicity rating ([7]; Rate 125 g al/ha): 70
CASOB phytotoxicity rating ([7]; Rate 500 g al/ha): 50
DIGSA phytotoxicity rating ([8]; Rate 125 g al/ha): 0
DIGSA phytotoxicity rating ([8]; Rate 500 g al/ha): 30
ECHCG phytotoxicity rating ([9]; Rate 125 g al/ha): 0
ECHCG phytotoxicity rating ([9]; Rate 500 g al/ha): 40
SETVI phytotoxicity rating ([10]; Rate 125 g al/ha): 30
SETVI phytotoxicity rating ([10]; Rate 500 g al/ha): 80
SOY crop damage rating ([11]; Rate 125 g al/ha): 0
SOY crop damage rating ([11]; Rate 500 g al/ha): 30
crop damage rating SOY ([12]; rate 63 g ai/ha): 0
crop damage rating SOY ([12]; rate 500 g ai/ha): 40
CORN crop damage rating ([13]; Rate 125 g al/ha): 0
CORN crop damage rating ([13]; Rate 500 g al/ha): 0
RICE crop damage rating ([14]; Rate 125 g al/ha): 0
RICE crop damage rating ([14]; Rate 500 g al/ha): 20
phytotoxicity rating AMBEL ([15]; rate 63 g ai/ha): 0
phytotoxicity rating AMBEL ([15]; rate 500 g ai/ha): 50
phytotoxicity rating IPOHE ([16]; rate 63 g ai/ha): 70
phytotoxicity rating IPOHE ([16]; rate 500 g ai/ha): 80
phytotoxicity rating ABUTH ([17]; rate 63 g ai/ha): 95
phytotoxicity rating ABUTH ([17]; rate 500 g ai/ha): 100
phytotoxicity rating SORHA ([18]; rate 63 g ai/ha): 0
phytotoxicity rating SORHA ([18]; rate 500 g ai/ha): 50
phytotoxicity rating AMARE ([19]; rate 63 g ai/ha): 100
phytotoxicity rating AMARE ([19]; rate 500 g ai/ha): 100
phytotoxicity rating CHEAL ([20]; rate 63 g ai/ha): 50
phytotoxicity rating CHEAL ([20]; rate 500 g ai/ha): 80
phytotoxicity rating DIGSA ([21]; rate 63 g ai/ha): 50
phytotoxicity rating DIGSA ([21]; rate 500 g ai/ha): 20
phytotoxicity rating ECHCG ([22]; rate 63 g ai/ha): 10
phytotoxicity rating ECHCG ([22]; rate 500 g ai/ha): 0
phytotoxicity rating SETVI ([23]; rate 63 g ai/ha): 0
phytotoxicity rating SETVI ([23]; rate 500 g ai/ha): 20
crop damage rating CORN ([24]; rate 63 g ai/ha): 10
crop damage rating CORN ([24]; rate 500 g ai/ha): 10
crop damage rating RICE ([25]; rate 63 g ai/ha): 20
crop damage rating RICE ([25]; rate 500 g ai/ha): 30
